Measurements taken from US10365275B2, “Immunologically active polypeptide” (Institute of Arthritis Research, LLC, priority 2013, dated 2019).

Experiments:
Type in all cases: cell-based
[1] = biological target: T1, human TLR2 (Homo sapiens, UniProt O60603); assay: NF-κB-driven SEAP reporter assay in TLR-transfected HEK293 cells
T1 construct: host or cells: HEK293
Procedure: (§1) PeptideX2 (200 μg/mL) was tested for its effects on human TLR-driven NF-κB activation in HEK293 cell lines transfected with human TLR2, 3, 4, 5, 7, 8 or 9 (InvivoGen, San Diego, Calif.). HEK293 cells (50,000 to 75,000 cells/well) expressing the indicated TLR were plated in wells of a 96-well plate (200 μl total volume) containing either with no additions, PeptideX2 (in 20 μl buffer), or buffer only (20 μl) as a vehicle control. All cells contained a reporter construct having coding sequence for Secreted Embryonic Alkaline Phosphatase (SEAP) under the control of a promoter inducible by the transcription of NF-κB, and were incubated in media containing a detectable SEAP expression indicator (InvivoGen, San Diego, Calif.). After 16-20 hours incubation at 37° C., the optical density of culture supernatants was read at 650 nm on a Molecular Devices SpectraMax™ 340PC absorbance detector.
(§2) The relative potency of PeptideX2 induction of human TLR-mediated NF-κB activation was compared to the effects of known PAMP ligands that have activity as agonists for each of the human TLRs TLR2, TLR3, TLR4, TLR5, TLR7, TLR8 and TLR9, using the NF-κB-driven SEAP reporter assay (InvivoGen, San Diego, Calif.). The known TLR agonists were as follows: for TLR2, heat killed Listeria monocytogenes (HKLM) at 10^8 cells/ml; for TLR3, poly(I:C) at 1 ug/ml; for TLR4, E. coli K12 LPS at 100 ng/ml; for TLR5, S. typhimurium flagellin at 100 ng/ml; for TLR7, CL097 at 1 ug/ml; for TLR8, CL075 at 1 ug/ml; for TLR9, CpG ODN 2006 at 100 ng/ml.

[2] = biological target: T2, human TLR4 (Homo sapiens, UniProt O00206); assay: as above; conditions: PeptideX2 200 μg/mL, 16-20 hours
T2 construct: host or cells: HEK293
T2 sequence (O00206 24-839): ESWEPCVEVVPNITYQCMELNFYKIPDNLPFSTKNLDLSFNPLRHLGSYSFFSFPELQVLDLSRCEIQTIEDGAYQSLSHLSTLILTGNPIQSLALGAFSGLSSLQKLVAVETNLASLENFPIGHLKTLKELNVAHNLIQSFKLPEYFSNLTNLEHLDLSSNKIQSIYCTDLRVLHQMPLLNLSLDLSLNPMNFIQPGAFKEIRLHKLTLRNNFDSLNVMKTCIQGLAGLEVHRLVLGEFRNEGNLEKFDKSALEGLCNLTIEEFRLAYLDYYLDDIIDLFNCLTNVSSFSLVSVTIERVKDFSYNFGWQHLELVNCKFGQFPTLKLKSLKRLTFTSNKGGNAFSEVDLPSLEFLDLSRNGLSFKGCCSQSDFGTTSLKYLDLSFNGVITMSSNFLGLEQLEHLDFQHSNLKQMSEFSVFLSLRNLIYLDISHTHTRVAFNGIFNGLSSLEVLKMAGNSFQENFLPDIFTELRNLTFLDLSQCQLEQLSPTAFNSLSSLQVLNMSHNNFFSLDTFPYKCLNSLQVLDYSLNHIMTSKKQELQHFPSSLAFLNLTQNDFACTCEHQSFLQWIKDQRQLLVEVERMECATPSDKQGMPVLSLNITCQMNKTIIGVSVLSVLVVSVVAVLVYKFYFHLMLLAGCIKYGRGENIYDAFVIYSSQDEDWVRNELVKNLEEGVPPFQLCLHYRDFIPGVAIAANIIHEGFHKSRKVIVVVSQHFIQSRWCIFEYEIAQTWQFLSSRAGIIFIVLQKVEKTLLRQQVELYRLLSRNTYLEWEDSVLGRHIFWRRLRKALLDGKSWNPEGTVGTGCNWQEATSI
T2 sequence (Q9Y6Y9 17-160 partner limits assumed): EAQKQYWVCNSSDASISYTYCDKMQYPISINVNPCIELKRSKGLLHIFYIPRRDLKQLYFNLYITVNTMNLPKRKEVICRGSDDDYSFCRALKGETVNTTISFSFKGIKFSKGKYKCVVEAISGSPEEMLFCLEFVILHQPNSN
Procedure: as §1, §2

[3] = test system: human peripheral blood white cells (WBC); assay: TNFα production by WBC during short-term incubation with S. aureus (ELISA); conditions: for TNFα concentration: 3-hour culture
Procedure: Staphylococcus aureus bacteria were incubated with human peripheral blood white cells (WBC) in the absence or presence of PeptideX2 (0, 10, and 100 μg/ml), and the effects on S. aureus growth were assessed by serial dilutions, microbiological plating and determination by counting colony forming units (CFU) in culture samples withdrawn after incubation times of 0, 1.5 and 3 hours. The WBC-to-Staph ratio was 100:1, using WBC at 4×10^6/ml and Staph 4×10^4 CFU/ml. Supernatant fluids from the same experimental cultures were also tested for TNFα production by WBC during the short-term incubations with S. aureus. […] In this three-hour timeframe, however, the presence of PeptideX2 at these concentrations had no effect on WBC bacteriocidal activity against S. aureus.

[4] = test system: peripheral blood cells; assay: Cytokine production by human peripheral blood cells (MSD panel)
Procedure: In order to examine the biological activity of IgX, cytokine production from human peripheral whole blood samples incubated with IgX was measured. Peripheral whole blood samples from three different donors (#66, 67, and 85) were obtained with appropriate informed consent and incubated with concentrations of IgX ranging from 0 to 200 ug/ml.
Protein A purified IgX was prepared from placental sample BC, brought to 0.05 M phosphate, 0.15 M NaCl buffer, pH 7.4, treated with an endotoxin affinity column (ActiClean Etox™ from Sterogene, Carlsbad, Calif.) according to the supplier's instructions, and then sent to IBT Bioservices (Gaithersburg, Md.) for human peripheral blood testing. […] All peripheral blood cells were suspended in RPMI-1640 media. Various concentrations of IgX were incubated with peripheral blood cells from donor D66 for 18 hours, and then the samples were stimulated with 1 ug/ml of PHA, 50 ng/ml of LPS, or 10 ng/ml of IFNγ (200 U/ml) for four hours. Samples of culture supernatant fluids were tested in duplicate for the presence of IL-2, IL-4, IL-6, IL-10, IL-12, and TNFα using a Meso Scale Discovery (MSD, Gaithersburg, Md.) panel.
PeptideX1 and PeptideX2 were incubated with peripheral blood cells from donor D67 as described above and tested in duplicate for IL-6 activity. […]

[5] = biological target: T3, murine TLR2 (Mus musculus, UniProt Q9QUN7); assay: NF-κB-driven SEAP reporter assay in TLR-transfected HEK293 cells; conditions: PeptideX2 200 μg/mL
T3 construct: host or cells: HEK293
T3 sequence (Q9QUN7 25-784): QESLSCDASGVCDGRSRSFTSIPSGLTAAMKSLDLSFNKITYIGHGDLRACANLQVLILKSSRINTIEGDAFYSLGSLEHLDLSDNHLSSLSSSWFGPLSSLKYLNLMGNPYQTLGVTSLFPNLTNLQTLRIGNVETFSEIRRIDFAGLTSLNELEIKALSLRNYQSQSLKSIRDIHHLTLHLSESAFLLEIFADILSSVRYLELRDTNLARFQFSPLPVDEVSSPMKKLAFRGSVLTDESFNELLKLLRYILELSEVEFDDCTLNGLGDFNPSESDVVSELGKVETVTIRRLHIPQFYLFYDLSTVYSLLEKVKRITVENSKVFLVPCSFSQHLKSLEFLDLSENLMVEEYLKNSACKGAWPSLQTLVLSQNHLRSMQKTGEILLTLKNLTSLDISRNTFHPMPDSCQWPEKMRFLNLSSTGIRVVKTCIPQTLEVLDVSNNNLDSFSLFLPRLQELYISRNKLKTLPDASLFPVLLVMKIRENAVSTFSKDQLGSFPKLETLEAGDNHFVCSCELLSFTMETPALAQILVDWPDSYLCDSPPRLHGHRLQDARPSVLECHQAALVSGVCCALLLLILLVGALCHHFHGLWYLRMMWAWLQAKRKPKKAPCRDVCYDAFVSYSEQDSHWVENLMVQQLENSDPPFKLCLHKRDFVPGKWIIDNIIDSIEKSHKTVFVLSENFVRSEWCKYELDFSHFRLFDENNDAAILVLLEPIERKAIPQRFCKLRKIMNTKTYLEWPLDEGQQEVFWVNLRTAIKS
Procedure: as §1
(§3) PeptideX2 (200 μg/mL) was also tested for its effects on murine TLR-driven NE-κB activation in HEK293 cell lines transfected with murine TLR2, 3, 4, 5, 7, 8 or 9 (InvivoGen, San Diego, Calif.) essentially as described above.

[6] = test system: murine TLR3, 5, 7, 8 or 9; assay: as above; conditions: PeptideX2 200 μg/mL
Procedure: as §1, §3

[7] = biological target: T4, murine TLR4 (Mus musculus, UniProt Q9QUK6); assay: as above; conditions: PeptideX2 200 μg/mL
T4 construct: host or cells: HEK293
T4 sequence (Q9QUK6 26-835): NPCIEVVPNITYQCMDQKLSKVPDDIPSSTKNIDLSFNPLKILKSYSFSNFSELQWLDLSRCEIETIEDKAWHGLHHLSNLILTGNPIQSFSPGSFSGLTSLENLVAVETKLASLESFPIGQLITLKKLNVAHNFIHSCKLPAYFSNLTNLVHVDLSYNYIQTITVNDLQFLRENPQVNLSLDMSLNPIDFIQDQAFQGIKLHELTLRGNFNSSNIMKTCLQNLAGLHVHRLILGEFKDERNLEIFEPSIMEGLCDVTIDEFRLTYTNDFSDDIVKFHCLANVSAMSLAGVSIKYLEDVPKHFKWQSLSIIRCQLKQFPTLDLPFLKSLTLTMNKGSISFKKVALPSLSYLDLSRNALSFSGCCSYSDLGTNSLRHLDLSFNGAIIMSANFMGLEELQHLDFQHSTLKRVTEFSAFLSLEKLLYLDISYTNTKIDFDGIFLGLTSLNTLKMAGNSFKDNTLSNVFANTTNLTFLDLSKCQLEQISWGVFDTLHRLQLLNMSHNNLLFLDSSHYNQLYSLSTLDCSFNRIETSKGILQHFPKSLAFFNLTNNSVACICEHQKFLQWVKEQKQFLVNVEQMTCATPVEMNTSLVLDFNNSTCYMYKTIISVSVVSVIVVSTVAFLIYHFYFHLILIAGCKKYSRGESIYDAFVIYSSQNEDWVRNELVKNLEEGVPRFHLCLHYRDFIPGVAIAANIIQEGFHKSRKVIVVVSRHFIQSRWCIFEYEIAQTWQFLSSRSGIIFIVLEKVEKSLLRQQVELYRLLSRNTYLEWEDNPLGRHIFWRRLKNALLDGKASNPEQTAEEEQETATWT
T4 sequence (Q9JHF9 19-160 partner): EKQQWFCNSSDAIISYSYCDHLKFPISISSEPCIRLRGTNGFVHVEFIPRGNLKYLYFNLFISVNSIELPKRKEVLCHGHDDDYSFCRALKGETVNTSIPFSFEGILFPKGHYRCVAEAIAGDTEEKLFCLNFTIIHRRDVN
Procedure: as §1, §3

[8] = test system: Staphylococcus aureus; assay: S. aureus growth (CFU) with human peripheral blood white cells
Procedure: Staphylococcus aureus bacteria were incubated with human peripheral blood white cells (WBC) in the absence or presence of PeptideX2 (0, 10, and 100 μg/ml), and the effects on S. aureus growth were assessed by serial dilutions, microbiological plating and determination by counting colony forming units (CFU) in culture samples withdrawn after incubation times of 0, 1.5 and 3 hours. The WBC-to-Staph ratio was 100:1, using WBC at 4×10^6/ml and Staph 4×10^4 CFU/ml.

[9] = test system: E. coli; assay: E. coli growth (CFU) with human peripheral blood leukocytes; conditions: E. coli with WBCs with PeptideX2, 10 hours
Procedure: Human peripheral blood leukocytes (WBCs) were obtained from healthy donors with informed consent. Three test groups were inoculated with E. coli and incubated for 10 hours. The three groups were E. coli with serum alone, E. coli with WBCs, and E. coli with WBCs with PeptideX2. Samples were taken at 0, 2, 4, 6 and 10 hours and plated for colony forming units (CFUs). […] In a separate but similar experiment, nine test groups (E. coli with serum alone, E. coli with WBCs, and E. coli with WBCs with PeptideX2 at each of seven indicated concentrations, see FIG. 12) were incubated over a time course of three hours, with quantification of bacterial CFU performed at times 0, 1.5 and 3 hours (FIG. 12).

T1 sequence (O60603 21-784): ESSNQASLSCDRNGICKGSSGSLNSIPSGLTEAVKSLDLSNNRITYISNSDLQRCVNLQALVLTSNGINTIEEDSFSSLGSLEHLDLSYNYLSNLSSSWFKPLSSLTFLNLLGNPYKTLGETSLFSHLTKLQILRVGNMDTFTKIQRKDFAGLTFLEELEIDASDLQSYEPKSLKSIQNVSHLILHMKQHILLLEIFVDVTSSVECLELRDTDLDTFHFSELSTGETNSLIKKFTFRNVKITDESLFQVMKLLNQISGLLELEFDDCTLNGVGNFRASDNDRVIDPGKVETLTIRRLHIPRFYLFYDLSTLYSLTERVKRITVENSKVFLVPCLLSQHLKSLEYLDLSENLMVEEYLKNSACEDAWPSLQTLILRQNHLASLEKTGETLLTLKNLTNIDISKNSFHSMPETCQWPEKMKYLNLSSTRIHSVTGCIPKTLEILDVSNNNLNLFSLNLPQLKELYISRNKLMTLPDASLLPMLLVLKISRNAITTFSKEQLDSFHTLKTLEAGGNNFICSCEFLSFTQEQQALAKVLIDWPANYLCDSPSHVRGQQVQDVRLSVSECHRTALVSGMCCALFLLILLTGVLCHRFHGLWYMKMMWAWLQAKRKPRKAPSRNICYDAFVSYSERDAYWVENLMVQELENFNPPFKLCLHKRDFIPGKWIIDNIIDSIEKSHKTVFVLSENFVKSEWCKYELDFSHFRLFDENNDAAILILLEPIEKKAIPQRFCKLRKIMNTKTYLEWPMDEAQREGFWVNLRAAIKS

## KSIAYLQMNSLK (Peptide fragment) [PeptideX2, dodecapeptide derived from the heavy chain hypervariable region of IgX, residues 97-108 of AAH90938.1]
[1]; PeptideX2 200 μg/mL vs HKLM at 10^8 cells/ml
  TLR2-mediated response as level of the response to HKLM: 14%
[1]; PeptideX2 200 μg/mL, 16-20 hours
  NF-κB activation via TLR2: activation of NF-κB via TLR2 and TLR4
[2]
  NF-κB activation via TLR4: activation of NF-κB via TLR2 and TLR4
[3]; 100 ug/ml PeptideX2, 3-hour timepoint
  reduction in TNFα production: 65%
[3]; WBC plus PeptideX2 at 10 ug/ml
  TNFα concentration: 160 pg/mL
[3]; WBC plus PeptideX2 at 100 ug/ml
  TNFα concentration: 76 pg/mL
[3]; serum plus PeptideX2 at 100 ug/ml (no WBC)
  TNFα concentration: 0.05 pg/mL
[3]; PeptideX2 at 10 ug/ml, 3-hour timepoint
  reduction in TNFα production: 27%
[4]; cells from donor #67, compared to peptideX1
  IL-6 production: significantly greater IL-6 production compared to peptideX1
[4]; cells from donor #85, PeptideX2 0, 10, 100 or 200 ug/ml
  IL-6 production: enhanced production
[5]
  NF-κB-driven SEAP expression through murine TLR2: induction
[6]
  NF-κB-driven SEAP expression through the other murine TLRs tested: not through the other TLRs tested
[7]
  NF-κB-driven SEAP expression through murine TLR4: induction
  potency via murine TLR4 relative to murine TLR2: greater potency in activating via murine TLR4 relative to murine TLR2
[8]; PeptideX2 10 and 100 ug/ml, three-hour timeframe
  effect on WBC bacteriocidal activity against S. aureus: no effect
[8]; WBC present, up to three hours, presence or absence of PeptideX2 (0, 10, 100 μg/ml)
  S. aureus growth: no S. aureus growth was detected
[9]
  E. coli CFUs: rapid rise in CFUs
